Results on one molecule are retold here after publication PMC9929129, “Towards Translation of PqsR Inverse Agonists: From In Vitro Efficacy Optimization to In Vivo Proof‐of‐Principle” (Advanced Science, 2023).

The target in the assay is T1, HTR2B Human 5-Hydroxytryptamine GPCR (Homo sapiens, UniProt P41595).
T1 construct: 86-0030P-2091AN
The assay is described as follows: HTR2B GPCR calcium assay, 86-0030P-2091AG. The assay is classed as cell-based. An excerpt:
1.4.2 Further functional off-target assays (Eurofins)
Table S8. Compound 24 was further tested in the following functional assays at Eurofins.
ASSAY NAME ESTIMATED IC50 [µM] […]
FLIPR Assay expressed in HEK293 cells
GABAA α5/β3/γ2 ionotropic receptor (human GABRA5, GABRB3, >30
and GABRG2 genes, expressed in HEK293 cells

T1 sequence (P41595 whole entry): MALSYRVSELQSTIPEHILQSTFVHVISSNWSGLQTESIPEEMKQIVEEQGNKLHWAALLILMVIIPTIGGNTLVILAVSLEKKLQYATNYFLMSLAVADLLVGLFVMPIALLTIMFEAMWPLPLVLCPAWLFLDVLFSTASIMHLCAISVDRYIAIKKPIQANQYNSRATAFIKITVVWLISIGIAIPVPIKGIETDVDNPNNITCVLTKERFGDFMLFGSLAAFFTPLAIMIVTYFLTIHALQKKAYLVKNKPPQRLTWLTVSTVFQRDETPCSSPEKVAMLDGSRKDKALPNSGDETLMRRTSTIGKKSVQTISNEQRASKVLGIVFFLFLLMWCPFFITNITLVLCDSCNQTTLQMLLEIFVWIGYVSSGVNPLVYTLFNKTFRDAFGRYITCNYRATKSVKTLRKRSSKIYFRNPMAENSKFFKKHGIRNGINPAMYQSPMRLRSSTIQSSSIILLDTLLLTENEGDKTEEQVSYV

For the molecule `CC(C)Oc1ccc(-c2ncc(CNc3ccnc(C(F)(F)F)c3)cn2)cc1Cl` [Compound 24], the IC50 was above 10 µM.

A word on the IC50: it is the point on the concentration scale where inhibition reaches its midpoint.
